According to ChEMBL document CHEMBL1144607, “Novel hydroxamic acid-related phosphinates: inhibition of neutral aminopeptidase N (APN)” (Bioorg Med Chem Lett, 2007):
Active and inactive are the calls of the source. The rule behind the calls is not given here.

Key:
Aminopeptidase N [1] = biological target: T1, Aminopeptidase N (Homo sapiens, UniProt P15144); test: Inhibition of APN at <300 uM
Aminopeptidase N [2] = biological target: T1, Aminopeptidase N; test: Inhibition of APN

T1 sequence (P15144 whole entry): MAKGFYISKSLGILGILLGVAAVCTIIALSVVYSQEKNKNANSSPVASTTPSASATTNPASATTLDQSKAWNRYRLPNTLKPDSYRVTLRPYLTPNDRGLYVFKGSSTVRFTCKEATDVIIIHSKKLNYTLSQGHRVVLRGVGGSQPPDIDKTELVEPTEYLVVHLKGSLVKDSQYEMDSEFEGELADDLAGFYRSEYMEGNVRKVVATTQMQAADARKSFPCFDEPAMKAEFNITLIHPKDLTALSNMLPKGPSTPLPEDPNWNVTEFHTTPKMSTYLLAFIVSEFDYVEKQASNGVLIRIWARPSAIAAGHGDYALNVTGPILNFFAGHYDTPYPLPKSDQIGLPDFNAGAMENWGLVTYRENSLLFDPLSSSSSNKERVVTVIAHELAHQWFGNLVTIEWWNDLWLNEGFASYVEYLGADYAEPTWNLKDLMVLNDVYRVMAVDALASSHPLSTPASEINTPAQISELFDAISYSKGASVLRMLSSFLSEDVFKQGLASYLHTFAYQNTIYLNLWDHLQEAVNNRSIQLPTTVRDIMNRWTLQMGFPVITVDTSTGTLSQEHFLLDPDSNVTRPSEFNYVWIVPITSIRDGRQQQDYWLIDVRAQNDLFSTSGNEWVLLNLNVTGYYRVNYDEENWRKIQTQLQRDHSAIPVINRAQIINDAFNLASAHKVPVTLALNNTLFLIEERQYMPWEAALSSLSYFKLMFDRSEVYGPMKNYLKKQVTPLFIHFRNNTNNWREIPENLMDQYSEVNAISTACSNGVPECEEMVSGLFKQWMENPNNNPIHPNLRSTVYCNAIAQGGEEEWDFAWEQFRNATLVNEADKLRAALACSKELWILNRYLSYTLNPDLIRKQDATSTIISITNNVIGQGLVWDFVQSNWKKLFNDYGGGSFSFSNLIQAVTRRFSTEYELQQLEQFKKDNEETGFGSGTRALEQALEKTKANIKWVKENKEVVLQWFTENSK

| Activity (Aminopeptidase N [1]) | SMILES | IC50 (Aminopeptidase N [2]) [µM] |
| --- | --- | --- |
| inactive | CCNC(=O)P(=O)(O)C(N)C(C)C (centres undefined) | – |
| – | CC(C)C(N)P(=O)(O)C(=O)Nc1ccccc1 (centres undefined) | 160 |
| – | CC(C)CC(N)P(=O)(O)C(C)N (centres undefined) | 155 |
| inactive | CCCCCNC(=O)P(=O)(O)C(N)Cc1ccccc1 (centres undefined) | – |
